Assay results: ChEMBL document CHEMBL3885881, “DrugMatrix”

Organism: Rattus norvegicus
Test: DrugMatrix - Regimen: Daily Repeat
Assay type: toxicity, organism-based, Sprague-Dawley
Design: regimen Daily Repeat, gender Male, age 6-8 weeks
Conditions: in vivo, po, route oral GAVAGE, vehicle .5 % CMC; for ABSOLUTE BASOPHIL / ABSOLUTE EOSINOPHIL / ABSOLUTE LYMPHOCYTE / ABSOLUTE MONOCYTE / ABSOLUTE SEGMENTED NEUTROPHIL / BASOPHIL / EOSINOPHIL / ERYTHROCYTE COUNT / HEMATOCRIT / HEMOGLOBIN / LEUKOCYTE COUNT / LYMPHOCYTE / MEAN CORPUSCULAR HEMOGLOBIN / MEAN CORPUSCULAR HEMOGLOBIN CONCENTRATION / MEAN CORPUSCULAR VOLUME / MONOCYTE / NEUTROPHIL / NUCLEATED RED BLOOD CELLS / PLATELET COUNT: tissue Blood; for ALANINE AMINOTRANSFERASE / ALBUMIN / ALKALINE PHOSPHATASE / ASPARTATE AMINOTRANSFERASE / BLOOD UREA NITROGEN / CARBON DIOXIDE / CHLORIDE / CHOLESTEROL / CREATINE PHOSPHOKINASE / CREATININE / GLUCOSE / LACTATE DEHYDROGENASE / LIPASE / PHOSPHORUS / POTASSIUM / SODIUM / TOTAL BILIRUBIN / TOTAL PROTEIN / URIC ACID: tissue Plasma
[1] = 0 mg/kg, 72 h, dose level Control, time 3 day
[2] = 0 mg/kg, 120 h, dose level Control, time 5 day
[3] = 100 mg/kg, 72 h, dose level Low, time 3 day

Question: What does the source list for `O=C(O)CCc1nc(-c2ccccc2)c(-c2ccccc2)o1` [OXAPROZIN]?
Answer: ABSOLUTE BASOPHIL [1]: 0 CELLS/uL; ABSOLUTE EOSINOPHIL [1]: 0 CELLS/uL; ABSOLUTE LYMPHOCYTE [1]: 12269.67 CELLS/uL; ABSOLUTE MONOCYTE [1]: 160.33 CELLS/uL; ABSOLUTE SEGMENTED NEUTROPHIL [1]: 970 CELLS/uL; BASOPHIL [1]: 0%; EOSINOPHIL [1]: 0%; ERYTHROCYTE COUNT [1]: 5.76 x10E6/uL; HEMATOCRIT [1]: 36.57%; HEMOGLOBIN [1]: 14.22 G/DL; LEUKOCYTE COUNT [1]: 13.4 x10E3/uL; LYMPHOCYTE [1]: 91.67%; MEAN CORPUSCULAR HEMOGLOBIN [1]: 24.67 pg; MEAN CORPUSCULAR HEMOGLOBIN CONCENTRATION [1]: 38.85 G/DL; MEAN CORPUSCULAR VOLUME [1]: 63.52 fL; MONOCYTE [1]: 1.17%; NEUTROPHIL [1]: 7.17%; NUCLEATED RED BLOOD CELLS [1]: 0.33 /100WBC; PLATELET COUNT [1]: 1250.83 x10E3/uL; ALANINE AMINOTRANSFERASE [1]: 49.17 u/L; ALBUMIN [1]: 4.33 G/DL; ALKALINE PHOSPHATASE [1]: 378.5 u/L; ASPARTATE AMINOTRANSFERASE [1]: 82.17 u/L; BLOOD UREA NITROGEN [1]: 15 mg/dL; CARBON DIOXIDE [1]: 34.33 mmol/L; CHLORIDE [1]: 99.17 MEQ/L; CHOLESTEROL [1]: 71.17 mg/dL; CREATINE PHOSPHOKINASE [1]: 258.67 u/L; CREATININE [1]: 0.18 mg/dL; GLUCOSE [1]: 142.67 mg/dL; LACTATE DEHYDROGENASE [1]: 154.33 u/L; LIPASE [1]: 9 u/L; PHOSPHORUS [1]: 11.67 mg/dL; POTASSIUM [1]: 7.13 MEQ/L; SODIUM [1]: 142.22 MEQ/L; TOTAL BILIRUBIN [1]: 0.18 mg/dL; TOTAL PROTEIN [1]: 5.77 G/DL; URIC ACID [1]: 1.55 mg/dL; ABSOLUTE BASOPHIL [2]: 0 CELLS/uL; ABSOLUTE EOSINOPHIL [2]: 23.33 CELLS/uL; ABSOLUTE LYMPHOCYTE [2]: 14943.67 CELLS/uL; ABSOLUTE MONOCYTE [2]: 32 CELLS/uL; ABSOLUTE SEGMENTED NEUTROPHIL [2]: 1084.33 CELLS/uL; BASOPHIL [2]: 0%; EOSINOPHIL [2]: 0.17%; ERYTHROCYTE COUNT [2]: 5.71 x10E6/uL; HEMATOCRIT [2]: 35.28%; HEMOGLOBIN [2]: 14.27 G/DL; LEUKOCYTE COUNT [2]: 16.08 x10E3/uL; LYMPHOCYTE [2]: 93%; MEAN CORPUSCULAR HEMOGLOBIN [2]: 25.02 pg; MEAN CORPUSCULAR HEMOGLOBIN CONCENTRATION [2]: 40.43 G/DL; MEAN CORPUSCULAR VOLUME [2]: 61.82 fL; MONOCYTE [2]: 0.17%; NEUTROPHIL [2]: 6.67%; NUCLEATED RED BLOOD CELLS [2]: 0.33 /100WBC; PLATELET COUNT [2]: 1274 x10E3/uL; ALANINE AMINOTRANSFERASE [2]: 54.17 u/L; ALBUMIN [2]: 4.22 G/DL; ALKALINE PHOSPHATASE [2]: 373.17 u/L; ASPARTATE AMINOTRANSFERASE [2]: 81.83 u/L; BLOOD UREA NITROGEN [2]: 16.67 mg/dL; CARBON DIOXIDE [2]: 30.33 mmol/L; CHLORIDE [2]: 99 MEQ/L; CHOLESTEROL [2]: 71 mg/dL; CREATINE PHOSPHOKINASE [2]: 273.5 u/L; CREATININE [2]: 0.22 mg/dL; GLUCOSE [2]: 141.83 mg/dL; LACTATE DEHYDROGENASE [2]: 153.67 u/L; LIPASE [2]: 10.33 u/L; PHOSPHORUS [2]: 11.38 mg/dL; POTASSIUM [2]: 7.08 MEQ/L; SODIUM [2]: 142.75 MEQ/L; TOTAL BILIRUBIN [2]: 0.18 mg/dL; TOTAL PROTEIN [2]: 6.1 G/DL; URIC ACID [2]: 1.67 mg/dL; ABSOLUTE BASOPHIL [3]: 0 CELLS/uL; ABSOLUTE EOSINOPHIL [3]: 43.67 CELLS/uL; ABSOLUTE LYMPHOCYTE [3]: 14019 CELLS/uL; ABSOLUTE MONOCYTE [3]: 367 CELLS/uL; ABSOLUTE SEGMENTED NEUTROPHIL [3]: 1137 CELLS/uL; BASOPHIL [3]: 0%; EOSINOPHIL [3]: 0.33%; ERYTHROCYTE COUNT [3]: 5.52 x10E6/uL; HEMATOCRIT [3]: 36.5%; HEMOGLOBIN [3]: 14.27 G/DL; LEUKOCYTE COUNT [3]: 15.57 x10E3/uL; LYMPHOCYTE [3]: 89.67%; MEAN CORPUSCULAR HEMOGLOBIN [3]: 25.87 pg; MEAN CORPUSCULAR HEMOGLOBIN CONCENTRATION [3]: 39.17 G/DL; MEAN CORPUSCULAR VOLUME [3]: 66.13 fL; MONOCYTE [3]: 2.33%; NEUTROPHIL [3]: 7.67%; NUCLEATED RED BLOOD CELLS [3]: 0.67 /100WBC; PLATELET COUNT [3]: 1268.67 x10E3/uL; ALANINE AMINOTRANSFERASE [3]: 66 u/L; ALBUMIN [3]: 4.57 G/DL; ALKALINE PHOSPHATASE [3]: 374.67 u/L; ASPARTATE AMINOTRANSFERASE [3]: 95 u/L; BLOOD UREA NITROGEN [3]: 16.67 mg/dL; CARBON DIOXIDE [3]: 29.67 mmol/L; CHLORIDE [3]: 99.67 MEQ/L; CHOLESTEROL [3]: 67 mg/dL; CREATINE PHOSPHOKINASE [3]: 308 u/L; CREATININE [3]: 0.25 mg/dL; GLUCOSE [3]: 141.33 mg/dL; LACTATE DEHYDROGENASE [3]: 432 u/L; LIPASE [3]: 8.67 u/L; PHOSPHORUS [3]: 11.9 mg/dL; POTASSIUM [3]: 6.67 MEQ/L; SODIUM [3]: 145.33 MEQ/L; TOTAL BILIRUBIN [3]: 0.33 mg/dL; TOTAL PROTEIN [3]: 6.13 G/DL; URIC ACID [3]: 2.03 mg/dL
